According to patent US11197878B2, “Anti-inflammatory composition including novel quercetin-based compound” (AMOREPACIFIC CORPORATION, priority 2017, dated 2021):

Key:
IL-8 (Interleukin 8) = assay: Test for inhibiting generation of IL-8 in H2O2-stimulated fibroblast (ELISA); format: cell-based
Procedure: (§1) Fibroblast (PromoCell, Germany) was inoculated in a 6-well culturing plate at a concentration of 1×10^5 cells, and cultured in a 5% CO2 incubator at 37° C. for 24 hours. The well was treated with H2O2 500 μM and stimulated for 24 hours, and then were treated with quercetin3-O-[3-O″-(E)-p-coumaroyl][β-D-glucopyranosyl-(1→3)-O-α-L-rhamnopyranosyl-(1→6)-O-β-D-glucopyranoside] (‘New Material 31’) and quercetin3-O-[3-O″-(E)-p-coumaroyl][α-L-rhamnopyranosyl-(1→6)-O-β-D-glucopyranoside]) (‘New Material 32’) at a concentration of 100 μg/ml, respectively, and reacted for 48 hours. After the reaction was finished, the culture medium was collected and the ELISA analysis was performed. Herein, α-bisabolol, which is the material typically used as an anti-inflammatory agent and abirritant, was used as a control. As PGE2, a kit of Assay Design® was used, and as IL-6 and IL-8, a kit of Endogen® was used, and the test was carried out according to the methods prescribed in the manuals of the respective companies. (‘31’ refers to New Material 31, and ‘32’ refers to New Material 32) Inhibition effect={1−(test sample−control)/(H2O2−control)}×100 <Equation 1>

PGE2 (Prostaglandin E2) = assay: Test for inhibiting generation of PGE2 in H2O2-stimulated fibroblast (ELISA); format: cell-based
Procedure: as §1

skin = assay: Test for skin accumulated stimulus, HRIPT (Human repeated insult patch tests); format: in vivo; details: for Number of examinees who exhibited ±, +, or ++ reactivity, 1st: 1st patch; for Number of examinees who exhibited ±, +, or ++ reactivity, 2nd: 2nd patch; for Number of examinees who exhibited ±, +, or ++ reactivity, 3rd: 3rd patch; for Number of examinees who exhibited ±, +, or ++ reactivity, 4th: 4th patch; for Number of examinees who exhibited ±, +, or ++ reactivity, 5th: 5th patch; for Number of examinees who exhibited ±, +, or ++ reactivity, 6th: 6th patch; for Number of examinees who exhibited ±, +, or ++ reactivity, 7th: 7th patch; for Number of examinees who exhibited ±, +, or ++ reactivity, 8th: 8th patch; for Number of examinees who exhibited ±, +, or ++ reactivity, 9th: 9th patch
Procedure: HRIPT (Human repeated insult patch tests) was conducted in order to identify skin accumulated stimulus of quercetin3-O-[3-O″-(E)-p-coumaroyl][β-D-glucopyranosyl-(1→3)-O-α-L-rhamnopyranosyl-(1→6)-O-β-D-glucopyranoside] and quercetin3-O-[3-O″-(E)-p-coumaroyl][α-L-rhamnopyranosyl-(1→6)-O-β-D-glucopyranoside] and to calculate the concentration range that can be used in skin. Specifically, 15 healthy adult examinees were randomly selected, and test compositions in which the compounds were respectively comprised in an amount of 0.5 wt. %, 1 wt. %, and 3 wt. % (the compositions for skin, comprising an emulsifying agent, a stabilizer, purified water, etc. in addition to the compounds) were dropped in the amount of 20 μl per chamber (IQ chamber, Epitest Ltd, Finland), and patched on the right site of the upper back of the examinees, and then, after 24 hours, the patch was replaced with a new patch. A total of 9 patches were conducted, three times a week for total 3 weeks, in such manner, the skin reactions before and after patch were examined every time, and the skin reactions until 48 hours after removing the final patch were observed, and the average reactivity was observed. The skin reaction was determined according to the criteria of International Contact Dermatitis Research Group (ICDRG). In the above table, “New Material 31” refers to quercetin3-O-[3-O″-(E)-p-coumaroyl][β-D-glucopyranosyl-(1→3)-O-α-L-rhamnopyranosyl-(1→6)-O-β-D-glucopyranoside], and “New Material 32” refers to quercetin3-O-[3-O″-(E)-p-coumaroyl][α-L-rhamnopyranosyl-(1→6)-O-β-D-glucopyranoside].

[1] = fibroblast culture medium, H2O2 500 μM 24 hours, then test material (31, 32: 100 μg/ml) 48 hours, ELISA

SMILES: C[C@@H]1O[C@@H](OC[C@H]2O[C@@H](Oc3c(-c4ccc(O)c(O)c4)oc4cc(O)cc(O)c4c3=O)[C@H](O)[C@@H](OC(=O)/C=C/c3ccc(O)cc3)[C@@H]2O)[C@H](O)[C@H](O[C@@H]2O[C@H](CO)[C@@H](O)[C@H](O)[C@H]2O)[C@H]1O [New Material 31, quercetin3-O-[3-O″-(E)-p-coumaroyl][β-D-glucopyranosyl-(1→3)-O-α-L-rhamnopyranosyl-(1→6)-O-β-D-glucopyranoside]]
- inhibition at 100 µg/mL (IL-8 (Interleukin 8); Fibroblast, 100 μg/ml, {1−(test sample−control)/(H2O2−control)}×100, read-out: Inhibition effect according to Equation 1, IL-8): 61.1%
- IL-8 (IL-8 (Interleukin 8); [1]): 235 pg/mL
- inhibition at 100 µg/mL (PGE2 (Prostaglandin E2); Fibroblast, 100 μg/ml, {1−(test sample−control)/(H2O2−control)}×100, read-out: Inhibition effect according to Equation 1, PGE2): 51.7%
- PGE2 (PGE2 (Prostaglandin E2); [1]): 275 pg/mL
- Number of examinees who exhibited ±, +, or ++ reactivity, 1st (skin; 0.5 wt. %, line 1 of 3 (±)): 0 number
- Number of examinees who exhibited ±, +, or ++ reactivity, 1st (skin; 0.5 wt. %, line 2 of 3 (+)): 0 number
- Number of examinees who exhibited ±, +, or ++ reactivity, 1st (skin; 0.5 wt. %, line 3 of 3 (++)): 0 number
- Number of examinees who exhibited ±, +, or ++ reactivity, 2nd (skin; 0.5 wt. %, line 1 of 3 (±)): 0 number
- Number of examinees who exhibited ±, +, or ++ reactivity, 2nd (skin; 0.5 wt. %, line 2 of 3 (+)): 0 number
- Number of examinees who exhibited ±, +, or ++ reactivity, 2nd (skin; 0.5 wt. %, line 3 of 3 (++)): 0 number
- Number of examinees who exhibited ±, +, or ++ reactivity, 3rd (skin; 0.5 wt. %, line 1 of 3 (±)): 0 number
- Number of examinees who exhibited ±, +, or ++ reactivity, 3rd (skin; 0.5 wt. %, line 2 of 3 (+)): 0 number
- Number of examinees who exhibited ±, +, or ++ reactivity, 3rd (skin; 0.5 wt. %, line 3 of 3 (++)): 0 number
- Number of examinees who exhibited ±, +, or ++ reactivity, 4th (skin; 0.5 wt. %, line 1 of 3 (±)): 0 number
- Number of examinees who exhibited ±, +, or ++ reactivity, 4th (skin; 0.5 wt. %, line 2 of 3 (+)): 0 number
- Number of examinees who exhibited ±, +, or ++ reactivity, 4th (skin; 0.5 wt. %, line 3 of 3 (++)): 0 number
- Number of examinees who exhibited ±, +, or ++ reactivity, 5th (skin; 0.5 wt. %, line 1 of 3 (±)): 0 number
- Number of examinees who exhibited ±, +, or ++ reactivity, 5th (skin; 0.5 wt. %, line 2 of 3 (+)): 0 number
- Number of examinees who exhibited ±, +, or ++ reactivity, 5th (skin; 0.5 wt. %, line 3 of 3 (++)): 0 number
- Number of examinees who exhibited ±, +, or ++ reactivity, 6th (skin; 0.5 wt. %, line 1 of 3 (±)): 0 number
- Number of examinees who exhibited ±, +, or ++ reactivity, 6th (skin; 0.5 wt. %, line 2 of 3 (+)): 0 number
- Number of examinees who exhibited ±, +, or ++ reactivity, 6th (skin; 0.5 wt. %, line 3 of 3 (++)): 0 number
- Number of examinees who exhibited ±, +, or ++ reactivity, 7th (skin; 0.5 wt. %, line 1 of 3 (±)): 0 number
- Number of examinees who exhibited ±, +, or ++ reactivity, 7th (skin; 0.5 wt. %, line 2 of 3 (+)): 0 number
- Number of examinees who exhibited ±, +, or ++ reactivity, 7th (skin; 0.5 wt. %, line 3 of 3 (++)): 0 number
- Number of examinees who exhibited ±, +, or ++ reactivity, 8th (skin; 0.5 wt. %, line 1 of 3 (±)): 0 number
- Number of examinees who exhibited ±, +, or ++ reactivity, 8th (skin; 0.5 wt. %, line 2 of 3 (+)): 0 number
- Number of examinees who exhibited ±, +, or ++ reactivity, 8th (skin; 0.5 wt. %, line 3 of 3 (++)): 0 number
- average reactivity (skin; 0.5 wt. %, 9 patches over 3 weeks, 15 examinees, less than 3 is considered a stable composition): 0
- Number of examinees who exhibited ±, +, or ++ reactivity, 9th (skin; 0.5 wt. %, line 1 of 3 (±)): 0 number
- Number of examinees who exhibited ±, +, or ++ reactivity, 9th (skin; 0.5 wt. %, line 2 of 3 (+)): 0 number
- Number of examinees who exhibited ±, +, or ++ reactivity, 9th (skin; 0.5 wt. %, line 3 of 3 (++)): 0 number
- Number of examinees who exhibited ±, +, or ++ reactivity, 1st (skin; 1 wt. %, line 1 of 3 (±)): 0 number
- Number of examinees who exhibited ±, +, or ++ reactivity, 1st (skin; 1 wt. %, line 2 of 3 (+)): 0 number
- Number of examinees who exhibited ±, +, or ++ reactivity, 1st (skin; 1 wt. %, line 3 of 3 (++)): 0 number
- Number of examinees who exhibited ±, +, or ++ reactivity, 2nd (skin; 1 wt. %, line 1 of 3 (±)): 0 number
- Number of examinees who exhibited ±, +, or ++ reactivity, 2nd (skin; 1 wt. %, line 2 of 3 (+)): 0 number
- Number of examinees who exhibited ±, +, or ++ reactivity, 2nd (skin; 1 wt. %, line 3 of 3 (++)): 0 number
- Number of examinees who exhibited ±, +, or ++ reactivity, 3rd (skin; 1 wt. %, line 1 of 3 (±)): 0 number
- Number of examinees who exhibited ±, +, or ++ reactivity, 3rd (skin; 1 wt. %, line 2 of 3 (+)): 0 number
- Number of examinees who exhibited ±, +, or ++ reactivity, 3rd (skin; 1 wt. %, line 3 of 3 (++)): 0 number
- Number of examinees who exhibited ±, +, or ++ reactivity, 4th (skin; 1 wt. %, line 1 of 3 (±)): 0 number
- Number of examinees who exhibited ±, +, or ++ reactivity, 4th (skin; 1 wt. %, line 2 of 3 (+)): 0 number
- Number of examinees who exhibited ±, +, or ++ reactivity, 4th (skin; 1 wt. %, line 3 of 3 (++)): 0 number
